From US9695155B2, “Herbicidal substituted pyrimidinyloxy benzene compounds” (E. I. DU PONT DE NEMOURS AND COMPANY, priority 2013, dated 2017)

Experiments:
[1] = test system: pigweed; assay: Test A preemergence; format: in vivo, Amaranthus retroflexus; details: for Pigweed plant response rating: 500 g ai/ha
Outline: (§1)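 Injury scores run from 0, no effect, to 100, complete control, judged by eye against untreated plants roughly 10 days after treatment. Chemicals carried a surfactant in a non-phytotoxic solvent and went onto loam–sand soil preemergence or onto one- to two-leaf seedlings postemergence.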

[2] = test system: giant foxtail; assay: Test C postemergence; format: in vivo, Setaria faberii; details: for Foxtail, Giant plant response rating / Plant response rating, Foxtail, Giant: scale 0 to 100 (0 no effect, 100 complete control)
Outline: (§2)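 Rated visually on 0–100 (100 = complete control) after 13–15 days under glass. Treatments went onto freshly seeded loam/sand soil or onto emerged plants at the 1- to 4-leaf stage, using a surfactant-containing solvent formulation.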

[3] = test system: blackgrass; assay: Test C postemergence; format: in vivo, Alopecurus myosuroides; details: for Blackgrass plant response rating / Plant response rating, Blackgrass: scale 0 to 100 (0 no effect, 100 complete control)
Outline: as §2

[4] = test system: morningglory; assay: Test A postemergence; format: in vivo, Ipomoea spp.; details: 0 to 100 scale where 0 is no effect and 100 is complete control; for Morningglory plant response rating: 125 g ai/ha; for Plant response rating, Morningglory: 500 g ai/ha
Outline: as §1

[5] = test system: chickweed; assay: Test C postemergence; format: in vivo, Stellaria media; details: for Chickweed plant response rating / Plant response rating, Chickweed: scale 0 to 100 (0 no effect, 100 complete control)
Outline: as §2

[6] = test system: large (Lg) crabgrass; assay: Test C postemergence; format: in vivo, Digitaria sanguinalis; details: for Crabgrass, Large plant response rating / Plant response rating, Crabgrass, Large: scale 0 to 100 (0 no effect, 100 complete control)
Outline: as §2

[7] = test system: barnyardgrass; assay: Test A preemergence; format: in vivo, Echinochloa crus-galli; details: for Barnyardgrass plant response rating: 500 g ai/ha
Outline: as §1

[8] = test system: pigweed; assay: Test A postemergence; format: in vivo, Amaranthus retroflexus; details: 0 to 100 scale where 0 is no effect and 100 is complete control; for Pigweed plant response rating: 125 g ai/ha; for Plant response rating, Pigweed: 500 g ai/ha
Outline: as §1

[9] = test system: morningglory; assay: Test A preemergence; format: in vivo, Ipomoea spp.; details: for Morningglory plant response rating: 500 g ai/ha
Outline: as §1

[10] = test system: johnsongrass; assay: Test C postemergence; format: in vivo, Sorghum halepense; details: for Johnsongrass plant response rating / Plant response rating, Johnsongrass: scale 0 to 100 (0 no effect, 100 complete control)
Outline: as §2

[11] = test system: corn; assay: Test C postemergence; format: in vivo, Zea mays; details: for Corn plant response rating / Plant response rating, Corn: scale 0 to 100 (0 no effect, 100 complete control)
Outline: as §2

[12] = test system: sedge, umbrella; assay: Test B flooded paddy test; format: in vivo, Cyperus difformis; details: Flood, 250 g ai/ha; 0 to 100 scale where 0 is no effect and 100 is complete control
Outline: (§3)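 Post-emergence paddy-water application at the 2-leaf stage, with 3 cm flood kept for the whole test. Response was judged visually relative to controls after 13 to 15 greenhouse days, 0 indicating no effect and 100 complete control.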

[13] = test system: giant foxtail; assay: Test A preemergence; format: in vivo, Setaria faberii; details: for Foxtail, Giant plant response rating: 500 g ai/ha
Outline: as §1

[14] = test system: Italian ryegrass; assay: Test C postemergence; format: in vivo, Lolium multiflorum; details: for Ryegrass, Italian plant response rating / Plant response rating, Ryegrass, Italian: scale 0 to 100 (0 no effect, 100 complete control)
Outline: as §2

[15] = test system: barnyardgrass; assay: Test B flooded paddy test; format: in vivo, Echinochloa crus-galli; details: Flood, 250 g ai/ha; 0 to 100 scale where 0 is no effect and 100 is complete control
Outline: as §3

[16] = 0 to 100 scale where 0 is no effect and 100 is complete control
[17] = 16 g ai/ha, postemergence, 0 is no effect, 100 is complete control
[18] = 31 g ai/ha, postemergence, visual rating, 13 to 15 days
[19] = 125 g ai/ha, postemergence, visual rating
[20] = 125 g ai/ha, 0 to 100 scale where 0 is no effect and 100 is complete control
[21] = Postemergence, 62 g ai/ha, 13 to 15 days
[22] = 0 to 100 scale, 0 no effect, 100 complete control, approx. 10 days
[23] = 16 g ai/ha, postemergence, visual rating, 13 to 15 days
[24] = Postemergence, 31 g ai/ha, 13 to 15 days

Compound: Fc1cnc(Oc2cccc(C(F)F)c2-n2cc(C(F)(F)F)cn2)nc1 [Compound 164]
- Pigweed plant response rating (0 to 100 scale) ([1]; 125 g ai/ha): 100
- Pigweed plant response rating [1, 16]: 100
- Plant response rating (0 to 100), Foxtail, Giant [2, 17]: 0
- Foxtail, Giant plant response rating [2, 18]: 20
- Plant response rating, Foxtail, Giant [2, 19]: 10
- Plant response rating, Foxtail, Giant ([2]; Postemergence, 62 g ai/ha): 10
- Plant response rating (0 to 100), Blackgrass [3, 17]: 0
- Blackgrass plant response rating [3, 18]: 0
- Plant response rating, Blackgrass [3, 19]: 15
- Plant response rating, Blackgrass ([3]; Postemergence, 62 g ai/ha): 5
- Morningglory plant response rating [4]: 80
- Plant response rating, Morningglory [4]: 100
- Plant response rating (0 to 100), Chickweed [5, 17]: 45
- Chickweed plant response rating [5, 18]: 50
- Plant response rating, Chickweed [5, 19]: 90
- Plant response rating, Chickweed ([5]; Postemergence, 62 g ai/ha): 80
- Plant response rating (0 to 100), Crabgrass, Large [6, 17]: 5
- Crabgrass, Large plant response rating [6, 18]: 5
- Plant response rating, Crabgrass, Large [6, 19]: 10
- Plant response rating, Crabgrass, Large ([6]; Postemergence, 62 g ai/ha): 5
- Plant response rating, Barnyardgrass [7, 20]: 90
- Barnyardgrass plant response rating [7, 16]: 100
- Pigweed plant response rating [8]: 100
- Plant response rating, Pigweed [8]: 100
- Morningglory plant response rating (0 to 100 scale) ([9]; 125 g ai/ha): 80
- Morningglory plant response rating [9, 16]: 100
- Plant response rating (0 to 100), Johnsongrass [10, 17]: 0
- Johnsongrass plant response rating [10, 18]: 0
- Plant response rating, Johnsongrass [10, 19]: 10
- Plant response rating, Johnsongrass ([10]; Postemergence, 62 g ai/ha): 5
- Plant response rating (0 to 100), Corn [11, 17]: 0
- Corn plant response rating [11, 18]: 5
- Plant response rating, Corn [11, 19]: 5
- Plant response rating, Corn ([11]; Postemergence, 62 g ai/ha): 5
- Plant response rating, Sedge, Umbrella [12]: 90
- Plant response rating, Foxtail, Giant [13, 20]: 90
- Foxtail, Giant plant response rating [13, 16]: 100
- Plant response rating (0 to 100), Ryegrass, Italian [14, 17]: 0
- Ryegrass, Italian plant response rating [14, 18]: 0
- Plant response rating, Ryegrass, Italian [14, 19]: 0
- Plant response rating, Ryegrass, Italian ([14]; Postemergence, 62 g ai/ha): 0
- Plant response rating, Barnyardgrass [15]: 20

Compound: Fc1cnc(Oc2ccccc2-n2cc(C(F)F)cn2)nc1 [Compound 228]
- Pigweed plant response rating (0 to 100 scale) ([1]; 125 g ai/ha): 0
- Pigweed plant response rating [1, 16]: 0
- Plant response rating (0 to 100), Foxtail, Giant [2, 17]: 0
- Foxtail, Giant plant response rating [2, 18]: 0
- Plant response rating, Foxtail, Giant [2, 19]: 5
- Plant response rating, Foxtail, Giant [2, 21]: 0
- Plant response rating (0 to 100), Blackgrass [3, 17]: 0
- Blackgrass plant response rating [3, 18]: 0
- Plant response rating, Blackgrass [3, 19]: 40
- Plant response rating, Blackgrass [3, 21]: 0
- Morningglory plant response rating [4]: 80
- Plant response rating, Morningglory [4]: 100
- Plant response rating (0 to 100), Chickweed [5, 17]: 10
- Chickweed plant response rating [5, 18]: 30
- Plant response rating, Chickweed [5, 19]: 50
- Plant response rating, Chickweed [5, 21]: 50
- Plant response rating (0 to 100), Crabgrass, Large [6, 17]: 0
- Crabgrass, Large plant response rating [6, 18]: 5
- Plant response rating, Crabgrass, Large [6, 19]: 5
- Plant response rating, Crabgrass, Large [6, 21]: 5
- Barnyardgrass plant response rating (0 to 100 scale, 0 is no effect, 100 is complete control) ([7]; 125 g ai/ha): 20
- Barnyardgrass plant response rating [7, 16]: 100
- Pigweed plant response rating [8]: 100
- Plant response rating, Pigweed [8]: 100
- Morningglory plant response rating (0 to 100 scale) ([9]; 125 g ai/ha): 10
- Morningglory plant response rating [9, 16]: 80
- Plant response rating (0 to 100), Johnsongrass [10, 17]: 5
- Johnsongrass plant response rating [10, 18]: 0
- Plant response rating, Johnsongrass [10, 19]: 10
- Plant response rating, Johnsongrass [10, 21]: 5
- Plant response rating (0 to 100), Corn [11, 17]: 0
- Corn plant response rating [11, 18]: 0
- Plant response rating, Corn [11, 19]: 5
- Plant response rating, Corn [11, 21]: 0
- Plant response rating, Sedge, Umbrella [12]: 60
- Foxtail, Giant plant response rating (0 to 100 scale) ([13]; 125 g ai/ha): 90
- Foxtail, Giant plant response rating [13, 16]: 100
- Plant response rating (0 to 100), Ryegrass, Italian [14, 17]: 0
- Ryegrass, Italian plant response rating [14, 18]: 0
- Plant response rating, Ryegrass, Italian [14, 19]: 10
- Plant response rating, Ryegrass, Italian [14, 21]: 0
- Plant response rating, Barnyardgrass [15]: 0

Compound: FC(F)Oc1cnn(-c2ccccc2Oc2ncc(Cl)cn2)c1 [Compound 98]
- Plant response rating, Pigweed [1, 20]: 100
- Pigweed plant response rating [1, 22]: 100
- Foxtail, Giant plant response rating [2, 23]: 5
- Plant response rating (0 to 100), Foxtail, Giant ([2]; 125 g ai/ha, postemergence): 10
- Plant response rating, Foxtail, Giant [2, 24]: 5
- Plant response rating, Foxtail, Giant ([2]; Postemergence, 62 g ai/ha): 5
- Blackgrass plant response rating [3, 23]: 0
- Plant response rating (0 to 100), Blackgrass ([3]; 125 g ai/ha, postemergence): 20
- Plant response rating, Blackgrass [3, 24]: 5
- Plant response rating, Blackgrass ([3]; Postemergence, 62 g ai/ha): 30
- Plant response rating, Morningglory [4]: 100
- Chickweed plant response rating [5, 23]: 30
- Plant response rating (0 to 100), Chickweed ([5]; 125 g ai/ha, postemergence): 85
- Plant response rating, Chickweed [5, 24]: 50
- Plant response rating, Chickweed ([5]; Postemergence, 62 g ai/ha): 75
- Crabgrass, Large plant response rating [6, 23]: 5
- Plant response rating (0 to 100), Crabgrass, Large ([6]; 125 g ai/ha, postemergence): 5
- Plant response rating, Crabgrass, Large [6, 24]: 5
- Plant response rating, Crabgrass, Large ([6]; Postemergence, 62 g ai/ha): 5
- Plant response rating, Barnyardgrass [7, 20]: 50
- Barnyardgrass plant response rating [7, 22]: 100
- Plant response rating, Pigweed [8]: 100
- Plant response rating, Morningglory [9, 20]: 60
- Morningglory plant response rating [9, 22]: 80
- Johnsongrass plant response rating [10, 23]: 0
- Plant response rating (0 to 100), Johnsongrass ([10]; 125 g ai/ha, postemergence): 10
- Plant response rating, Johnsongrass [10, 24]: 0
- Plant response rating, Johnsongrass ([10]; Postemergence, 62 g ai/ha): 5
- Corn plant response rating [11, 23]: 5
- Plant response rating (0 to 100), Corn ([11]; 125 g ai/ha, postemergence): 20
- Plant response rating, Corn [11, 24]: 10
- Plant response rating, Corn ([11]; Postemergence, 62 g ai/ha): 5
- Plant response rating, Sedge, Umbrella [12]: 85
- Plant response rating, Foxtail, Giant [13, 20]: 100
- Foxtail, Giant plant response rating [13, 22]: 100
- Plant response rating (0 to 100), Ryegrass, Italian ([14]; 125 g ai/ha, postemergence): 25
- Plant response rating, Ryegrass, Italian [14, 24]: 0
- Plant response rating, Ryegrass, Italian ([14]; Postemergence, 62 g ai/ha): 5
- Plant response rating, Barnyardgrass [15]: 35
